Reference: ChEMBL document CHEMBL1201862, “PubChem BioAssay data set” (2004)
Active and inactive are the calls of the source.

How the values were obtained:
[1] = target: Scavenger receptor class B member 1 (Mus musculus, UniProt Q61009); experiment: mouse SR-BI DiI-HDL uptake blockers – ldlA[mSR-BI] cells, fluorescence, cherry pick, dose response (AID 493194); type: functional, cell-based;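 also: cellular uptake of fluorescent DiI-labeled HDL measured as cell fluorescence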
Streptokinase A = target: T1, Streptokinase A (Streptococcus pyogenes serotype M1, UniProt P10520); experiment: viability-normalized secreted streptokinase activity reduction – plasminogen activation absorbance, OD405, dose response (AID 1914); type: functional, Streptococcus pyogenes M1 GAS;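 also: secreted streptokinase activity via plasminogen activation per viability signal from cell pellet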
T1 sequence (P10520 whole entry): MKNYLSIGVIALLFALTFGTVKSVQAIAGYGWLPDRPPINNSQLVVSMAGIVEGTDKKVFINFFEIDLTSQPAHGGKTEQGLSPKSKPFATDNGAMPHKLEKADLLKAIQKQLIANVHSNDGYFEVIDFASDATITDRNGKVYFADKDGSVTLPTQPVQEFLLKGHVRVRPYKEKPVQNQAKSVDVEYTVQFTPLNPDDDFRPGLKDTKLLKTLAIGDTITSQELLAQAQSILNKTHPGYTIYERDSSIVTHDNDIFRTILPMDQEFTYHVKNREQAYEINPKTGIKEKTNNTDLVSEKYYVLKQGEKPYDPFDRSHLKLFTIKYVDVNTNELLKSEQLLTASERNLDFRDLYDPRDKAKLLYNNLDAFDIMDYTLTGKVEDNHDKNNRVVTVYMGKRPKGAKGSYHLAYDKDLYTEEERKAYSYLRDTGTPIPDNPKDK

[2] = target: Nucleotide-binding oligomerization domain-containing protein 2 (Homo sapiens, UniProt Q9HC29); experiment: PubChem AID 2334; type: functional
Genome polyprotein = Genome polyprotein (dengue virus type 2, UniProt P29990); experiment: flavivirus cap methylation enzyme inhibition – biochemical, confirmation dose response, primary screen (AID 588689); type: functional
[3] = target: T2, Nucleotide-binding oligomerization domain-containing protein 1 (Homo sapiens, UniProt Q9Y239); experiment: blockers of NOD1 pathway activity – revised, SAR follow-up (AID 2333); type: functional
T2 sequence (Q9Y239 whole entry): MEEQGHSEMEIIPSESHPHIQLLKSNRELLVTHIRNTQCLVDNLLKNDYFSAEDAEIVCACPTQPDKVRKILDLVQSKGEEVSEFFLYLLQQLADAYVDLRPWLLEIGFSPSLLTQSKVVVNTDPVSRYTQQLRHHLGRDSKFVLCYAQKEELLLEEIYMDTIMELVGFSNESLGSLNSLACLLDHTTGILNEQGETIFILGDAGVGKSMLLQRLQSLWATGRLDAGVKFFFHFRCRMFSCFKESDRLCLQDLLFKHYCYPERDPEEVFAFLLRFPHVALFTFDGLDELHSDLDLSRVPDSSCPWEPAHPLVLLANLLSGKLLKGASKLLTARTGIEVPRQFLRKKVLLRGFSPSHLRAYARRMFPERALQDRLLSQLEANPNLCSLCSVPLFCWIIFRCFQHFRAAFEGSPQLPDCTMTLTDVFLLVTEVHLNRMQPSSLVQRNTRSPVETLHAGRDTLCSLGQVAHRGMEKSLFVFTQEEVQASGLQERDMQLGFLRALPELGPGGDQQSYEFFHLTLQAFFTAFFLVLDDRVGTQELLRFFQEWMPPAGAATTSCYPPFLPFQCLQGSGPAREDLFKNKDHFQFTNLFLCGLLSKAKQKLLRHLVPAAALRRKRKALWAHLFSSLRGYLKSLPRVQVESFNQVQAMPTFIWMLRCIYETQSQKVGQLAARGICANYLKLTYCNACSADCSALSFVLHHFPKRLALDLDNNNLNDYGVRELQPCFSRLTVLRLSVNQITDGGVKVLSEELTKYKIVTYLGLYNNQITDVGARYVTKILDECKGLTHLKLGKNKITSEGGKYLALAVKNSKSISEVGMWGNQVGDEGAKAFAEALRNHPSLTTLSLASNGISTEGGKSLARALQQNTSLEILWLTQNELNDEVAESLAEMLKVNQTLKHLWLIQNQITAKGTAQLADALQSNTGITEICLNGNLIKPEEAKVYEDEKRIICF

Tumor necrosis factor = Tumor necrosis factor (Homo sapiens, UniProt P01375); experiment: analog potency on TNFa NF-kB signaling – cell-based, revised, SAR follow-up (AID 2337); type: functional
BJ [4] = experiment: cells; type: functional, cell-based; conditions: Homo sapiens
cells [5] = type: functional, cell-based
Streptococcus = experiment: GAS UMAA2166 growth inhibition – luminescence, BacTiterGlo, counter-screen for streptokinase expression inhibitor project, dose response (AID 1915); type: functional, organism-based;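 also: potency for reduction of bacterial viability or growth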
[6] = DRD fibroblast viability loss – cell-based, non-viral oncogenic, luminescence, dose response (AID 1934); type: functional; conditions: Homo sapiens
[7] = alpha-synuclein stem-loop luciferase translation blockers – H4 neuroglioma cells, luminescence, confirmation (AID 1988); type: functional, cell-based
Vero [8] = experiment: cells; type: functional; conditions: Chlorocebus sabaeus
BJ [9] = experiment: BJ-TERT-LT-ST fibroblast viability loss – cell-based, RAS-independent, luminescence, dose response (AID 1935); type: functional; conditions: Homo sapiens;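 also: BJ fibroblasts immortalized with TERT plus LT and ST oncogenes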
[10] = target: T3, Kappa-type opioid receptor (Homo sapiens, UniProt P41145); type: functional
[11] = target: T3, Kappa-type opioid receptor; type: functional; remark: listed apart in the source
Beta-galactosidase [12] = target: T4, Beta-galactosidase (Escherichia coli, UniProt Q8VNN2); type: functional
BJ [13] = experiment: growth inhibition of engineered Ras-driven BJ cells – cell-based, alamar blue fluorescence, cherrypicked samples, dose response (AID 2631); type: functional; conditions: Homo sapiens;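 also: confirmatory dose-response assay in RAS-dependent BJ fibroblasts engineered with TERT, LT and ST, with cytotoxicity read by fluorescence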
cells [14] = type: functional, cell-based; remark: listed apart in the source
[15] = luciferase reporter signal suppression in cells – H4 neuroglioma cells, luminescence, dose response (AID 1990); type: functional, cell-based
INS1 = experiment: INS-1E survival protection against cytokine death – cell-based, luminescence, retest, dose response (AID 449756); type: functional; conditions: Rattus norvegicus;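 also: cell death triggered by IL-1 beta plus TNF-alpha plus IFN-gamma mixture; protective hits raise ATP signal compared with cytokine alone wells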
[16] = Luminescence Cell-Based Dose Response HTS to Identify Inhibitors of 5'UTR Stem-Loop Driven Prion Protein mRNA Translation in H4 Neuroglioblastoma Cells. [Related pubchem assays: 1827 (Project Summary), 1813 (Primary HTS)]; type: functional
BJ [17] = experiment: BJ-TERT fibroblast viability loss – cell-based, RAS-independent, luminescence, dose response (AID 1933); type: functional; conditions: Homo sapiens
Vero [18] = experiment: cells; type: functional, cell-based; conditions: Chlorocebus sabaeus
[19] = tested on: Streptococcus sp. 'group A'; experiment: Streptococcus pyogenes SK(-)GAS viability under kanamycin – luminescence, BacTiterGlo, confirmation, counter-screen for streptokinase expression inhibitor project, dose response (AID 1900); type: functional, organism-based
[20] = target: DNA dC->dU-editing enzyme APOBEC-3G (Homo sapiens, UniProt Q9HC16); experiment: Dose Response confirmation of small molecule APOBEC3G DNA Deaminase Inhibitors via a fluorescence-based single-stranded DNA deaminase assay. [Related pubchem assays (depositor defined):AID493012, AID493028]; type: functional
[21] = target: DNA dC->dU-editing enzyme APOBEC-3A (Homo sapiens, UniProt P31941); experiment: A3A deaminase inhibition for selectivity – biochemical, dose response (AID 504722); type: functional
Beta-galactosidase [22] = target: T4, Beta-galactosidase; experiment: detection-enzyme interference by beta-gal modulators – biochemical, E. coli enzyme, set 3, artefact control for CCR6 antagonist project, dose response (AID 504712); type: functional
[23] = loss of viability in HepG2 cells – cell-based, CellTiter-Glo, cherry-picked, cytotoxicity control for Shn3 inhibitor project, dose response (AID 624134); type: functional
[24] = reduction of Shn3 3'UTR-driven luciferase in osteoblasts – cell-based, Clone20 osteoblasts, firefly luciferase, cherry-picked, dose response (AID 624132); type: functional;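 also: firefly luciferase luminescence from reporter carrying the Shn3 3'UTR in osteoblasts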
[25] = non-specific 3'UTR reporter inhibition in Clone20-Shn3RL – cell-based, Renilla luciferase, cherry-picked, counter-screen for Shn3 inhibitor project, dose response (AID 624133); type: functional
Melanocortin receptor 4 = Melanocortin receptor 4 (Homo sapiens, UniProt P32245); experiment: inhibitors of MC4R cAMP signaling – cell-based, TR-FRET, biased antagonists, dose response (AID 602298); type: functional;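 also: antagonist potency against agonist-stimulated cAMP production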
[26] = cAMP pathway inhibition in counterscreen cell line – TR-FRET cAMP detection, counter-screen for MC4R biased antagonist project, dose response (AID 602305); type: functional, cell-based;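 also: U2OS cells stimulated with forskolin near its EC80 as the cAMP inducer; potency is for inhibition of forskolin-stimulated cAMP signaling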
[27] = reduced cellular PGC1a acetyl-lysine signal – cell-based, cherry-picked samples, dose response (AID 720514); type: functional;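 also: potency may reflect raised or lowered acetylation signal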
[28] = target: Photoreceptor-specific nuclear receptor (Homo sapiens, UniProt Q9Y5X4); type: functional, cell-based;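 also: CHO-S cells with Gal4-NCOR and VP16-NR2E3 two-hybrid luciferase reporter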
Photoreceptor-specific nuclear receptor, sequence (Q9Y5X4 whole entry, the tested form may be a part): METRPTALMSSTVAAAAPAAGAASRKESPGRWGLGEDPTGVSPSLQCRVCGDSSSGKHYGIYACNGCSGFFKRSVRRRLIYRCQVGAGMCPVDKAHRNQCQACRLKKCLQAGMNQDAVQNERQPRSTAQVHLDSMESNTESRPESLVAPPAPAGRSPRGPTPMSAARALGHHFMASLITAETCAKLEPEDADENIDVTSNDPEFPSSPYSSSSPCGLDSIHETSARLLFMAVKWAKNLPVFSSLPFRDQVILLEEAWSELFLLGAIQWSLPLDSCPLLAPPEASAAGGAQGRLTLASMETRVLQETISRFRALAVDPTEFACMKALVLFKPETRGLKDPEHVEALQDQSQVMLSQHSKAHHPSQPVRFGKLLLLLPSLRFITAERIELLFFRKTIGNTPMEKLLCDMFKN

T4 sequence (Q8VNN2 whole entry): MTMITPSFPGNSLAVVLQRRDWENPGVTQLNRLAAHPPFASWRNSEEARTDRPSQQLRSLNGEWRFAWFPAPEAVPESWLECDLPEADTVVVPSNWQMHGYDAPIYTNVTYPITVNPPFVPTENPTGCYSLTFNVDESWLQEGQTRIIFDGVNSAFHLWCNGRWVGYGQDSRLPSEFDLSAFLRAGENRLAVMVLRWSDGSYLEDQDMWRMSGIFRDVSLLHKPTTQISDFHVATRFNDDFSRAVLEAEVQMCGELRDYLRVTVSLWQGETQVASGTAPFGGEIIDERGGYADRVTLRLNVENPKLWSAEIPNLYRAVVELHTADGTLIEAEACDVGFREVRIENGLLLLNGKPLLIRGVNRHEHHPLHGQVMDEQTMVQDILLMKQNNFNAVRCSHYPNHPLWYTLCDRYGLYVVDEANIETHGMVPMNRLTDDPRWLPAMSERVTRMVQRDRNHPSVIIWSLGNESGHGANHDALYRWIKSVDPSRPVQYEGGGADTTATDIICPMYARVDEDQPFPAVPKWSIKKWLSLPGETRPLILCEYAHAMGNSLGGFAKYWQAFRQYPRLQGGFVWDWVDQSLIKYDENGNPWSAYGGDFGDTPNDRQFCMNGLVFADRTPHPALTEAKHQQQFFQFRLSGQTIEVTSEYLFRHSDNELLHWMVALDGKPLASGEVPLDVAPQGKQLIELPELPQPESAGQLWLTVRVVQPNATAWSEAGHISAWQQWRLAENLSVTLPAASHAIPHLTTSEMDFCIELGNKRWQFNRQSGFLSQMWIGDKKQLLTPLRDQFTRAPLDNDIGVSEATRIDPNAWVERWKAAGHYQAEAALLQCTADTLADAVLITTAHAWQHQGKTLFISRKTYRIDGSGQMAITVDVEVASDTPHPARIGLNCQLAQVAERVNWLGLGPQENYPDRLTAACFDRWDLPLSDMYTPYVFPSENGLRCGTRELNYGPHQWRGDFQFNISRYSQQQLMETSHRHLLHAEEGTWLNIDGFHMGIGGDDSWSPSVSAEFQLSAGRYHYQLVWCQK
T3 sequence (P41145 whole entry): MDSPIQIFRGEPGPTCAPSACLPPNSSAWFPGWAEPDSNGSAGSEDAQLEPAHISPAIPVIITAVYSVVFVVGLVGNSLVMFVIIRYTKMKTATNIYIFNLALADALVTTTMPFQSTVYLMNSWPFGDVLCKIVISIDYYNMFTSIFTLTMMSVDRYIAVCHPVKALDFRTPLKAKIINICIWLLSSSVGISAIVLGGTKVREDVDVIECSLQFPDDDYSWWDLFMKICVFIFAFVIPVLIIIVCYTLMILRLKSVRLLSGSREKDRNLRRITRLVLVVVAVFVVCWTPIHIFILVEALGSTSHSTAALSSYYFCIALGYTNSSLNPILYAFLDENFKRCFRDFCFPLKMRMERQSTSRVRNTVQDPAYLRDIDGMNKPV
Scavenger receptor class B member 1, sequence (Q61009 whole entry): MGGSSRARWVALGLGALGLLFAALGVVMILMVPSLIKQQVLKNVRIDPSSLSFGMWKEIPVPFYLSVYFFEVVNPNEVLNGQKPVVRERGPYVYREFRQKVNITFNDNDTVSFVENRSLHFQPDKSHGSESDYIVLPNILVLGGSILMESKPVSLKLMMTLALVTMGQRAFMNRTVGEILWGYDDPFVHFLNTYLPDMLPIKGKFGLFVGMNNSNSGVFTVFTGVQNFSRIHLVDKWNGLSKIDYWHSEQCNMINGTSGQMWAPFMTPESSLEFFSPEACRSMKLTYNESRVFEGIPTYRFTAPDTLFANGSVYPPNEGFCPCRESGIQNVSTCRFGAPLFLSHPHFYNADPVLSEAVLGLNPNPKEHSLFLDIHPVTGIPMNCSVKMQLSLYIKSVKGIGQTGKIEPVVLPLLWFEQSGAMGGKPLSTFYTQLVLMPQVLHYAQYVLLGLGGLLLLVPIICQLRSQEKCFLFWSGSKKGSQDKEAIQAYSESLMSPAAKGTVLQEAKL
Genome polyprotein, sequence (P29990 2492-3391 limits assumed): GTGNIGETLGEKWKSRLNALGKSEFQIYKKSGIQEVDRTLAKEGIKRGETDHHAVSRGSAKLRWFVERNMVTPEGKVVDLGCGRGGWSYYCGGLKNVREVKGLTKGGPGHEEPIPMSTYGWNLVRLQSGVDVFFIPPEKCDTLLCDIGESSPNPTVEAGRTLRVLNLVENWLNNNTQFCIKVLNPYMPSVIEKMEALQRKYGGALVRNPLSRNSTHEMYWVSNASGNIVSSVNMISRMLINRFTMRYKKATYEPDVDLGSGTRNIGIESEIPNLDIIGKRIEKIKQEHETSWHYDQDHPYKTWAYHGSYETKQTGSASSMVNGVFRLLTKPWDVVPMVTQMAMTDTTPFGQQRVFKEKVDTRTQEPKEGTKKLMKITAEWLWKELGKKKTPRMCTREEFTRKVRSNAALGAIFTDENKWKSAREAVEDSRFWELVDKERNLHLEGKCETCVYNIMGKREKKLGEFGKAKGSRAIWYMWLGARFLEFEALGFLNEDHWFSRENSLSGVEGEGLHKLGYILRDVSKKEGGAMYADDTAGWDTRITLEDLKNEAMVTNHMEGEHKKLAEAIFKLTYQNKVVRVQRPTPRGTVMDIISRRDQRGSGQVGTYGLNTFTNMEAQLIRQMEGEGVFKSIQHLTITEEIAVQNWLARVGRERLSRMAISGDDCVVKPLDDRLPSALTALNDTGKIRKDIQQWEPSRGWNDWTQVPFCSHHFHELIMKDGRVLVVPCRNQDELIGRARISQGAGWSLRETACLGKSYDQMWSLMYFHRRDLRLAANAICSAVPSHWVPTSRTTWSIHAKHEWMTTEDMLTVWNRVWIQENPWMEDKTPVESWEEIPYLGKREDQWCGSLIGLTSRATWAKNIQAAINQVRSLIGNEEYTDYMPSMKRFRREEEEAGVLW
Nucleotide-binding oligomerization domain-containing protein 2, sequence (Q9HC29 whole entry, the tested form may be a part): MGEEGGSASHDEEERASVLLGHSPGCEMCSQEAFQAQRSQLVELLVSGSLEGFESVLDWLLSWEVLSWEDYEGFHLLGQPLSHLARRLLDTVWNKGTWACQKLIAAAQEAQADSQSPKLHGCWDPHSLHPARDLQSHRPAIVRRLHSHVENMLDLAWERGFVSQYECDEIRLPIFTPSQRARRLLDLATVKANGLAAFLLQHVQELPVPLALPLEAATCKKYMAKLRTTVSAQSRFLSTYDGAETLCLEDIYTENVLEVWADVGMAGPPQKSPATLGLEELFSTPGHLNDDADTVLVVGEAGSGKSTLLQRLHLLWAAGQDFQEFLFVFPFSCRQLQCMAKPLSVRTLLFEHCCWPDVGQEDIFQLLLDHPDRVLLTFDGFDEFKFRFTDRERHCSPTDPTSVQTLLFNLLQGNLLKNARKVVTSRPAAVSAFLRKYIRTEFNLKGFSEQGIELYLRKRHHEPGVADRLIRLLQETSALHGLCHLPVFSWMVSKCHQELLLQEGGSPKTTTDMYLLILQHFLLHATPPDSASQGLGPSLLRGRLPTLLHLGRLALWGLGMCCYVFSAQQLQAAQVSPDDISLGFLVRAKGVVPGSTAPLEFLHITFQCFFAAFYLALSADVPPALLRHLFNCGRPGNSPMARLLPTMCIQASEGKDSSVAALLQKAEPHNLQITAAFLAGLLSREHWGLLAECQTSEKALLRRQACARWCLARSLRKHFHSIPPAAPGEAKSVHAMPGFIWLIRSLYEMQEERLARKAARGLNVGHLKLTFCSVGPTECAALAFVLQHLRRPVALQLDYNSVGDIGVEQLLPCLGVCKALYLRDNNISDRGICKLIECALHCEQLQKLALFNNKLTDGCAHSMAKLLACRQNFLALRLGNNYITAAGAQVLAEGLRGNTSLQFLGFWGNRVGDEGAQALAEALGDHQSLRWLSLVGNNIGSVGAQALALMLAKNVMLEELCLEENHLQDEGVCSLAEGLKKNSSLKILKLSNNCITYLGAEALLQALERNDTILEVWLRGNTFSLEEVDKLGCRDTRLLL
DNA dC->dU-editing enzyme APOBEC-3G, sequence (Q9HC16 whole entry): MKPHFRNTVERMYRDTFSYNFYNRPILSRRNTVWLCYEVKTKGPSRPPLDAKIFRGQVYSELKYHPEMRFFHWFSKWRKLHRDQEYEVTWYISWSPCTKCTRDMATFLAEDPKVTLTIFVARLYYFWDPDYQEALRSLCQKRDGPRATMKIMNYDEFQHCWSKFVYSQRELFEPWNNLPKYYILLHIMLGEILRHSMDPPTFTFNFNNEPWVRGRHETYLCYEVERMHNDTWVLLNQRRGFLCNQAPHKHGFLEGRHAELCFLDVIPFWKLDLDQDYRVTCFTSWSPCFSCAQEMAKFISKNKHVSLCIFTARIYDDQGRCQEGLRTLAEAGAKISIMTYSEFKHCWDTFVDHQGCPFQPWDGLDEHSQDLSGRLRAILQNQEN
Tumor necrosis factor, sequence (P01375 whole entry): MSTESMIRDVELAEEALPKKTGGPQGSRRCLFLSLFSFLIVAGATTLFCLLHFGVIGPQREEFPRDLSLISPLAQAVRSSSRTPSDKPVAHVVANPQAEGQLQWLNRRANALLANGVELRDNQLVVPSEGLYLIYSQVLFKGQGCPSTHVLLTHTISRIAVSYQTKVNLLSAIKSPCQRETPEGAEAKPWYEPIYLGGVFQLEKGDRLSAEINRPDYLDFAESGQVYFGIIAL

Cc1cc(-c2csc(N)n2)c(C)n1-c1ccc(Cl)c(Cl)c1
AC50 [1]: 12.9 µM (active)

CCn1c(COc2c(C)cccc2C)nnc1SCC(=O)N1CCN(c2ccccc2)CC1
AC50 [1]: 23 µM (active)

N#Cc1c(-c2ccccc2)nc(SCc2cccc(C(F)(F)F)c2)[nH]c1=O
EC50 (Streptokinase A): 6.34 µM (active) | IC50 [2]: 7.5 µM (active) | IC50 (Genome polyprotein): 42.7 µM (active) | IC50 [3]: 6.48 µM (active) | IC50 (Tumor necrosis factor): 8.05 µM (active)

Cc1ccccc1N=Nc1ccc(O)c2ncccc12
EC50 (BJ [4]): 15.1 µM (inconclusive) | EC50 (cells [5]): 46.8 µM (active) | EC50 (Streptococcus): 0.437 µM (active) | EC50 [6]: 12.7 µM (active) | EC50 [7]: 2.03 µM (active) | CC50 (Vero [8]): 5.63 µM (active) | EC50 (BJ [9]): 6.64 µM (inconclusive) | IC50 [10]: 4.11 µM (active) | IC50 [11]: > 32 µM | EC50 (Beta-galactosidase [12]): 30.1 µM (active) | EC50 (BJ [13]): 0.677 µM (active) | EC50 (cells [14]): 7.93 µM (active) | EC50 [15]: 5.81 µM (active) | AC50 (INS1): 1.65 µM (active) | EC50 [16]: 2.89 µM (active) | EC50 (BJ [17]): 10.4 µM (inconclusive) | IC50 (Vero [18]): > 25 µM (active) | EC50 [19]: < 0.06 µM (active)

CCOc1ccc(N)c(SSc2cc(OCC)ccc2N)c1
IC50 [20]: 17.1 µM (active) | IC50 [21]: > 100 µM (inactive)

O=S(=O)(/C(=C\c1ccc(C(F)(F)F)cc1)c1nc2ccccc2[nH]1)c1ccccc1
IC50 (Beta-galactosidase [22]): > 66.6 µM (inactive) | AC50 [23]: 6.49 µM (active) | AC50 [24]: 1.85 µM (active) | AC50 [25]: < 0.5 µM (active) | IC50 (Melanocortin receptor 4): 9.39 µM (active) | IC50 [26]: > 64.6 µM (inactive) | AC50 [27]: 3.11 µM (active) | IC50 [28]: 4.42 µM (active)
